Assay results as given in patent US10975093B2, “Fused 1,4-diazepines as BET protein degraders” (THE REGENTS OF THE UNIVERSITY OF MICHIGAN, priority 2016, dated 2021).

What was measured:
[1] = system: MOLM-13; assay: Cell growth inhibition, CellTiter-Glo Luminescent Cell Viability Assay, MOLM-13; type: cell-based; details: MOLM-13 cells, 4 days incubation
Experimental: (§1) Cell growth inhibitory activity of representative Compounds of the Disclosure was determined in various cell lines using CellTiter-Glo® Luminescent Cell Viability Assay. Cells were seeded in 384-well white opaque cell culture plates at a density of 2,000 cells/well with serially diluted compounds and incubated at 37° C. in an atmosphere of 95% air and 5% CO2 for 4 days. Cell viability was determined using the CellTiter-Glo® Luminescent Cell Viability Assay Kit (Promega, Madison, Wis.) according to the manufacture's instruction. Briefly, a volume of CellTiter-Glo® Reagent equal to the volume of cell culture medium was added to each well, and then the plates were incubated at room temperature for 10-20 minutes. The luminescent signal was measured using a Tecan Infinite M1000 multimode microplate reader (Tecan, Morrisville, N.C.). The half maximal inhibitory concentration (IC50) was calculated using the GraphPad Prism 5 software (GraphPad Software, La Jolla, Calif.).

[2] = system: MDA-MB-231; assay: Cell growth inhibition, CellTiter-Glo Luminescent Cell Viability Assay, MDA-MB-231; type: cell-based; details: MDA-MB-231 cells, 4 days incubation
Experimental: as §1

SMILES | IC50 ([1]; Homo sapiens, MOLM-13, 96 h) | IC50 ([2]; Homo sapiens, MDA-MB-231, 96 h) | IC50 [1] | IC50 [2]
Cc1c(C#Cc2cnn(CCCN3CCC(Nc4cccc5c4CN(C4CCC(=O)NC4=O)C5=O)CC3)c2)sc2c1C(c1ccc(Cl)cc1)=N[C@@H](CC(=O)Nc1ccc(O)cc1)c1nnc(C)n1-2 (stereo partly drawn) [compound 193, 2-((6S)-4-(4-chlorophenyl)-2-((1-(3-(4-((2-(2,6-dioxopiperidin-3-yl)-1-oxoisoindolin-4-yl)amino)piperidin-1-yl)propyl)-1H-pyrazol-4-yl)ethynyl)-3,9-dimethyl-6H-thieno[3,2-f][1,2,4]triazolo[4,3-a][1,4]diazepin-6-yl)-N-(4-hydroxyphenyl)acetamide] | 0.03 nM | 0.06 nM | – | –
Cc1c(C#Cc2cnn(CCn3cnc(COc4cccc5c4C(=O)N(C4CCC(=O)NC4=O)C5=O)c3)c2)sc2c1C(c1ccc(Cl)cc1)=NCc1nnc(C)n1-2 (stereo not shown) [compound 153, 4-((1-(2-(4-((4-(4-chlorophenyl)-3,9-dimethyl-6H-thieno[3,2-f][1,2,4]triazolo[4,3-a][1,4]diazepin-2-yl)ethynyl)-1H-pyrazol-1-yl)ethyl)-1H-imidazol-4-yl)methoxy)-2-(2,6-dioxopiperidin-3-yl)isoindoline-1,3-dione] | > 100 nM | > 100 nM | – | –
Cc1c(C#Cc2ccc(CCCCNc3cccc4c3CN(C3CCC(=O)NC3=O)C4=O)nc2)sc2c1C(c1ccc(Cl)cc1)=N[C@@H](C)c1nnc(C)n1-2 (stereo partly drawn) [Cpd. No. 18, 3-(4-((4-(5-(((S)-4-(4-chlorophenyl)-3,6,9-trimethyl-6H-thieno[3,2-f][1,2,4]triazolo[4,3-a][1,4]diazepin-2-yl)ethynyl)pyridin-2-yl)butyl)amino)-1-oxoisoindolin-2-yl)piperidine-2,6-dione] | 0.23 nM | 0.43 nM | – | –
Cc1c(C#Cc2cnn(CCCC#Cc3cccc4c3C(=O)N(C3CCCNC3=O)C4=O)c2)sc2c1C(c1ccc(Cl)cc1)=NCc1nnc(C)n1-2 (stereo not shown) [compound 159, 4-(5-(4-((4-(4-chlorophenyl)-3,9-dimethyl-6H-thieno[3,2-f][1,2,4]triazolo[4,3-a][1,4]diazepin-2-yl)ethynyl)-1H-pyrazol-1-yl)pent-1-yn-1-yl)-2-(2-oxopiperidin-3-yl)isoindoline-1,3-dione] | > 100 nM | > 100 nM | – | –
CCNC(=O)C[C@@H]1N=C(c2ccc(Cl)cc2)c2c(sc(C#Cc3cnn(CCCN4CCC(Nc5cccc6c5CN(C5CCC(=O)NC5=O)C6=O)CC4)c3)c2C)-n2c(C)nnc21 (stereo partly drawn) [compound 191, 2-((6S)-4-(4-chlorophenyl)-2-((1-(3-(4-((2-(2,6-dioxopiperidin-3-yl)-1-oxoisoindolin-4-yl)amino)piperidin-1-yl)propyl)-1H-pyrazol-4-yl)ethynyl)-3,9-dimthyl-6H-thieno[3,2-f][1,2,4]triazolo[4,3-a][1,4]diazepin-6-yl)-N-ethylacetamide] | 0.04 nM | 0.2 nM | – | –
Cc1c(C#Cc2cnn(CCCn3cnc(CNc4cccc5c4CN(C4CCC(=O)NC4=O)C5=O)c3)c2)sc2c1C(c1ccc(Cl)cc1)=NCc1nnc(C)n1-2 (stereo not shown) [compound 151, 3-(4-(((1-(3-(4-((4-(4-chlorophneyl)-3,9-dimethyl-6H-thieno[3,2-f][1,2,4]triazolo[4,3-a][1,4]diazepin-2-yl)ethynyl)-1H-pyrazol-1-yl)propyl)-1H-imidazol-4-yl)methyl)amino)-1-oxoisoindolin-2-yl)piperidine-2,6-dione] | > 100 nM | > 100 nM | – | –
Cc1c(C#Cc2ccc(CCC#Cc3cccc4c3CN(C3CCC(=O)NC3=O)C4=O)cn2)sc2c1C(c1ccc(Cl)cc1)=NCc1nnc(C)n1-2 (stereo not shown) [compound 181, 3-(4-(4-(6-((4-(4-chlorophenyl)-3,9-dimethyl-6H-thieno[3,2-f][1,2,4]triazolo[4,3-a][1,4]diazepin-2-yl)ethynyl)pyridin-3-yl)but-1-yn-1-yl)-1-oxoisoindolin-2-yl)piperidine-2,6-dione] | > 1000 nM | 532 nM | – | –
Cc1c(C#Cc2cnn(CCOCCOCCOCC#Cc3cccc4c3CN(C3CCC(=O)NC3=O)C4=O)c2)sc2c1C(c1ccc(Cl)cc1)=N[C@@H](CC(=O)N1CCN(C)CC1)c1nnc(C)n1-2 (stereo partly drawn) [compound 197, 3-(4-(3-(2-(2-(2-(4-(((S)-4-(4-chlorophenyl)-3,9-dimethyl-6-(2-(4-methylpiperazin-1-yl)-2-oxoethyl)-6H-thieno[3,2-f][1,2,4]triazolo[4,3-a][1,4]diazepin-2-yl)ethynyl)-1H-pyrazol-1-yl)ethoxy)ethoxy)ethoxy)prop-1-yn-1-yl)-1-oxoisoindolin-2-yl)piperidine-2,6-dione] | 1.1 nM | 2.5 nM | – | –
Cc1c(C#Cc2cnn(C[C@H]3CC[C@H](Nc4cccc5c4CN(C4CCC(=O)NC4=O)C5=O)CC3)c2)sc2c1C(c1ccc(Cl)cc1)=N[C@@H](C)c1nnc(C)n1-2 (stereo partly drawn) [compound 171, 3-(4-(((1S,4r)-4-((4-(((S)-4-(4-chlorophenyl)-3,6,9-trimethyl-6H-thieno[3,2-f][1,2,4]triazolo[4,3-a][1,4]diazepin-2-yl)ethynyl)-1H-pyrazol-1-yl)methyl)cyclohexyl)amino)-1-oxoisoindolin-2-yl)piperidine-2,6-dione] | 0.6 nM | 0.9 nM | 0.8 nM | 1 nM
Cc1c(C#Cc2cnn(CCCCn3cnc(CNc4cccc5c4CN(C4CCC(=O)NC4=O)C5=O)c3)c2)sc2c1C(c1ccc(Cl)cc1)=NCc1nnc(C)n1-2 (stereo not shown) [compound 152, 3-(4-(((1-(4-(4-((4-(4-chlorophenyl)-3,9-dimethyl-6H-thieno[3,2-f][1,2,4]triazolo[4,3-a][1,4]diazepin-2-yl)ethynyl)-1H-pyrazol-1-yl)butyl)-1H-imidazol-4-yl)methyl)amino)-1-oxoisoindolin-2-yl)piperidine-2,6-dione] | 8.7 nM | 12.2 nM | – | –
Cc1ncsc1-c1ccc([C@H](C)NC(=O)[C@@H]2C[C@@H](O)CN2C(=O)[C@@H](NC(=O)COCCCn2cc(C#Cc3sc4c(c3C)C(c3ccc(Cl)cc3)=N[C@@H](C)c3nnc(C)n3-4)cn2)C(C)(C)C)cc1 [compound 199, (2S,4R)-1-((S)-2-(2-(3-(4-(((S)-4-(4-chlorophenyl)-3,6,9-trimethyl-6H-thieno[3,2-f][1,2,4]triazolo[4,3-a][1,4]diazepin-2-yl)ethynyl)-1H-pyrazol-1-yl)propoxy)acetamido)-3,3-dimethylbutanoyl)-4-hydroxy-N-((S)-1-(4-(4-methylthiazol-5-yl)phenyl)ethyl)pyrrolidine-2-carboxamide] | 0.5 ± 0.06 nM | 6.7 nM | – | –
Cc1c(C#Cc2cnn(CCCN3CCC(Nc4cccc5c4CN(C4CCC(=O)NC4=O)C5=O)CC3)c2)sc2c1C(c1ccc(Cl)cc1)=NCc1nnc(C)n1-2 (stereo not shown) [compound 148, 3-(4-((1-(3-(4-((4-(4-chlorophenyl)-3,9-dimethyl-6H-thieno[3,2-f][1,2,4]triazolo[4,3-a][1,4]diazepin-2-yl)ethynyl)-1H-pyrazol-1-yl)propyl)piperidin-4-yl)amino)-1-oxoisoindolin-2-yl)piperidine-2,6-dione] | 0.24 nM | 0.4 nM | – | –
Cc1c(C#Cc2cnn(CCN3CCN(c4cccc5c4C(=O)N(C4CCC(=O)NC4=O)C5=O)CC3)c2)sc2c1C(c1ccc(Cl)cc1)=N[C@@H](C)c1nnc(C)n1-2 (stereo partly drawn) [compound 183, 4-(4-(2-(4-(((S)-4-(4-chlorophenyl)-3,6,9-trimethyl-6H-thieno[3,2-f][1,2,4]triazolo[4,3-a][1,4]diazepin-2-yl)ethynyl)-1H-pyrazol-1-yl)ethyl)piperazin-1-yl)-2-(2,6-dioxopiperidin-3-yl)isoindoline-1,3-dione] | 0.8 nM | 0.3 nM | – | –
Cc1c(C#Cc2cnn(C[C@H]3C[C@H](Nc4cccc5c4CN(C4CCC(=O)NC4=O)C5=O)C3)c2)sc2c1C(c1ccc(Cl)cc1)=N[C@@H](C)c1nnc(C)n1-2 (stereo partly drawn) [compound 173, 3-(4-(((1S,3r)-3-((4-(((S)-4-(4-chlorophenyl)-3,6,9-trimethyl-6H-thieno[3,2-f][1,2,4]triazolo[4,3-a][1,4]diazepin-2-yl)ethynyl)-1H-pyrazol-1-yl)methyl)cyclobutyl)amino)-1-oxoisoindolin-2-yl)piperidine-2,6-dione] | 3.3 nM | 4.6 nM | – | –
Cc1ncsc1-c1ccc([C@H](C)NC(=O)[C@@H]2C[C@@H](O)CN2C(=O)[C@@H](NC(=O)COCCOCCOCCOCCn2cc(C#Cc3sc4c(c3C)C(c3ccc(Cl)cc3)=N[C@@H](C)c3nnc(C)n3-4)cn2)C(C)(C)C)cc1 [compound 198, (2S,4R)-1-((S)-2-(tert-butyl)-17-(4-(((S)-4-(4-chlorophenyl)-3,6,9-trimethyl-6H-thieno[3,2-f][1,2,4]triazolo[4,3-a][1,4]diazepin-2-yl)ethynyl)-1H-pyrazol-1-yl)-4-oxo-6,9,12,15-tetraoxa-3-azaheptadecanoyl)-4-hydroxy-N-((S)-1-(4-(4-methylthiazol-5-yl)phenyl)ethyl)pyrrolidine-2-carboxamide] | 0.24 ± 0.06 nM | 1.5 nM | – | –
Cc1c(C#Cc2ccc(CN3CCC(CNc4cccc5c4CN(C4CCC(=O)NC4=O)C5=O)CC3)cn2)sc2c1C(c1ccc(Cl)cc1)=NCc1nnc(C)n1-2 (stereo not shown) [compound 167, 3-(4-(((1-((6-((4-(4-chlorophenyl)-3,9-dimethyl-6H-thieno[3,2-f][1,2,4]triazolo[4,3-a][1,4]diazepin-2-yl)ethynyl)pyridin-3-yl)methyl)piperidin-4-yl)methyl)amino)-1-oxoisoindolin-2-yl)piperidine-2,6-dione] | 6.2 nM | 7.2 nM | – | –
